Assay results reported in publication PMC8009417, “Selective killing of homologous recombination-deficient cancer cell lines by inhibitors of the RPA:RAD52 protein-protein interaction” (PLoS ONE, 2021).

Assays:
[1] = test system: HCC1937 cells corrected with wild-type BRCA1 gene (BRCA1+); assay: Cell viability assay (PrestoBlue, 72 h), HCC1937+BRCA1; format: cell-based; conditions: Homo sapiens, estimated from the graphs
Description: Fig 2 BRCA1-deficient HCC1937 breast cancer cell line survival assay. BRCA1-deficient HCC1937 cells corrected with wild-type BRCA1 gene (BRCA1+; closed triangle), and with an empty vector (BRCA1-; closed circle) were examined. For each experiment (Figs 2–4), cell lines were treated with nine concentrations of (A) quinacrine, (B) mitoxantrone, and (C) doxorubicin in 96-well culture plates at 5x10^3 cell/well density. Each treatment point was made in sextuplicate. Treated cells were incubated for 72 hours at 37°C before assessing cell viability using PrestoBlue. Data were normalized to vehicle control. The experiment was repeated three times. Error bars indicate the standard deviation.
The HCC1937 cell line (a gift from Dr. Simon Powell Memorial Sloan Kettering (MSK), New York) was derived from a mammary gland primary ductal carcinoma at the early onset of a tumor. This TNBC patient carried a germline mutation in BRCA1, resulting in carboxy-terminal truncated protein and loss of the second BRCA1 allele. BRCA1-restored and empty vector cell lines were also obtained by transfection of a vector containing a full-length human BRCA1 cDNA or an empty vector, respectively. The HCC1937 cell lines were cultured as described.
(§1) Cells were seeded 5 x 10^3 cells per well in 96-well plates in a 90 μL volume per well one day before treatment. Cells in 96-well plates were incubated with increasing concentrations of the compound or vehicle control (1% DMSO) for 72 hours. Each treatment plate contained nine concentrations of a compound in sextuplicate. Growth inhibition was determined using PrestoBlue reagent (Life Technologies, #A13261). Fluorescent measurements were taken using a Spectramax M5 plate reader (MDS). To assess cells’ replication in the absence of compounds as a control, six wells on each plate were treated with vehicle to be read in triplicate at the initial treatment day (T0) and at 72-hour read (T100).

γH2AX (DNA damage) = assay: Simple Western of γH2AX (DNA damage) after treatment; format: cell-based, human; conditions: 72 h at doses near EC50
Description: Fig 6 The effect of mitoxantrone treatment on RAD52 levels and DNA damage. […] Data and ANOVA statistical analyses are described in the material and methods section. Significance statistics are shown with single, double, or triple asterisks representing P<0.05, P<0.005, or P<0.0005, respectively.
For western analysis, each cell line was grown and treated as described above. Protein levels were measured in lysates by size separation with a ProteinSimple PeggySue instrument following the manufacturer’s recommendations. Lysates were prepared using the NanoPro Cell Lysis Kit with Bicine/CHAPS (ProteinSimple CBS403) at 0.75 mg/mL concentration when mixed with master mix (containing SDS, DTT and fluorescent molecular weight markers; ProteinSimple PS-FL01-8) and heated for 5 min at 95°C. Electrophoretic nanocapillary size separation of proteins was performed using default settings. After separation, UV light cross-linked proteins to the capillary wall. Capillaries were then washed and incubated with primary antibodies, washed, and incubated with anti-rabbit secondary antibody conjugated with HRP (ProteinSimple DM-001). Finally, luminol and peroxide were applied to generate chemoluminescence which was imaged by a CCD camera. Primary antibody concentrations were optimized and were diluted as follows: Abcam anti-RAD52 antibody (ab18263, diluted 1:25), R&D Systems Human Phospho-histone H2AX (S139) antibody (AF2288, diluted 1:100), and Cell Signalling Technology Pan-Actin antibody (#4968, diluted 1:2500).
The Simple western data were processed and analyzed with ProteinSimple Compass software. Peak areas were calculated using dropped lines. Each lysate was analyzed for RAD52 and γH2AX levels three times and for Actin two times (see S2 Fig). Replicate peak areas for RAD52 and γH2AX were averaged, divided by the average Actin peak area of that sample, multiplied by 100 and graphed using SigmaPlot 7.0.

[2] = test system: BRCA2-deficient PE01 ovarian cancer cells (BRCA2-); assay: Cell viability assay (PrestoBlue, 72 h), PE01; format: cell-based; conditions: Homo sapiens, estimated from the graphs
Description: BRCA2-deficient PE01 cell line (a gift from Dr. Toshiyasu Taniguchi, Tokai University, Japan) were derived from an ovarian cancer patient. BRCA2-proficient “revertant” cell line, C4-2 is one of eight clones derived from PE01 that has acquired resistance to both cisplatin and PARPi due to a secondary mutation that restored the BRCA2 function. PE01 and PE01 C4-2 were grown and maintained in DMEM high glucose (Hyclone) supplemented with 10% Fetal Bovine Serum (FBS, Invitrogen).
as §1

[3] = test system: PARPi-resistant UWB1.SYr13 cells; assay: Cell viability assay (PrestoBlue, 72 h), UWB1.SYr13; format: cell-based; conditions: Homo sapiens, estimated from the graphs
Source text: (§2) BRCA1-deficient UWB1.289 cells corrected with wild-type BRCA1 gene (BRCA1+; closed triangle) and parental BRCA1-deficient UWB1.289 (BRCA1-; closed circle). Two PARPi-resistant cell lines derived from UWB1.289, UWB1.289.SYr12 (closed diamond) and UWB1.SYr13 (X), were also examined.
(§3) UWB1.289 (a gift from Dr. Lee Zou, Harvard Medical School, Boston, MA) were derived from a serous ovarian carcinoma with a germline BRCA1 mutation and a deletion of the wild-type allele. […] Two PARP-resistant cell lines, SYr12 and SYr13, were derived from the UWB1.289. The Mammary Epithelial growth media, along with SupplementMix solution for UWB1 cell lines, were obtained from PromoCell GmbH and mixed as described.
as §1

[4] = test system: UWB1.289 cells corrected with wild-type BRCA1 gene (BRCA1+); assay: Cell viability assay (PrestoBlue, 72 h), UWB1.289+BRCA1; format: cell-based; conditions: Homo sapiens, UWB1289, estimated from the graphs
Source text: as §2, §3, §1

[5] = test system: PARPi-resistant UWB1.289.SYr12 cells; assay: Cell viability assay (PrestoBlue, 72 h), UWB1.289.SYr12; format: cell-based; conditions: Homo sapiens, estimated from the graphs
Source text: as §2, §3, §1

[6] = test system: single-strand annealing (SSA) in U2OS-SA cells; assay: Cell-based DSB repair assay, SSA (SA-GFP reporter, FACS); conditions: 4 nM, 2 h pre-treatment, three days
Description: (A) The effect of mitoxantrone (MX) on SSA and HR were studied with cell-based DSB repair assays. U2OS-SA and U2OS-DR cells were pre-treated with mitoxantrone for two hours before transfection of the SceI-expression plasmid. Then cells were grown in the presence of mitoxantrone for three days. DSB repair activities were determined by (B) FACS analysis. […] U2OS-SA cells were pre-treated with indicated concentrations of mitoxantrone for two hours, before I-SceI-expression vector transfection. After 72 hours incubation, the cells were harvested, and lysates were prepared. Lysate from each treatment was analyzed by 12% SDS-PAGE and the expression levels of I-SceI was determined by the western blot using anti-HA antibody. The p70 of RPA was used as a loading control. Ratios of I-SceI to p70 was obtained with ImageJ and are shown at the bottom of the image. C: control experiment without the addition of mitoxantrone. (D, E) Analysis of DSB repair activiies by western blots. […] At least three independent experiments were performed. Error bars represent standard deviations.

[7] = test system: UWB1.289 cells with or without BRCA1 restoration; assay: Apoptosis by cleaved PARP western blot; format: cell-based, human; conditions: 0.2 μM for three days; BRCA1-mutated vs BRCA1-restored UWB1.289
Description: UWB1.289 cells with or without restoration of the BRCA1 expression were treated with 0.2 μM of mitoxantrone (MX) for three days. Olaparib (Ola) at 1 μM was used as control for the induction of apoptosis. Near EC50 concentrations were selected for each compound. After the treatment with each compound, cell lysates were prepared and cleaved PARP was detected with (A) anti-cleaved PARP antibody (Cell Signaling Technology #9541) and (B) anti-PARP antibody (Cell Signaling Technology #9542). Tubulin detected with anti-beta-tubulin antibody (Cell Signaling Technology #15115) was used as an internal control. (C) Ratios of cleaved PARP to tubulin were determined with ImageJ and graphed. Three independent experiments were performed and the mean values are shown. The bars indicate standard deviations. Statistical significance of differences was determined with Student t-test (* p<0.05 and ** p<0.01).

## O=C1c2c(O)ccc(O)c2C(=O)c2c(NCCNCCO)ccc(NCCNCCO)c21 [Mitoxantrone, mitoxantrone]
[1]
  EC50: > 5 µM
γH2AX (DNA damage); HCC1937 cell lines
  DNA damage (γH2AX) from treatment: low to negligible levels of DNA damage
γH2AX (DNA damage); PE01 cells
  DNA damage (γH2AX) from treatment: substantial increase in DNA damage
γH2AX (DNA damage); UWB1 cell lines
  DNA damage (γH2AX) from treatment: low to negligible levels of DNA damage
[2]
  EC50: 0.1 µM
[3]
  EC50: 2.5 µM
[4]
  EC50: 3 µM
[5]
  EC50: 2.4 µM
[6]
  inhibition at 0.004 µM: 72%
[7]
  Induction of apoptosis (cleaved PARP): preferentially induced apoptosis in the BRCA1-mutated UWB1.289
